Assay results reported in US7868023B2, “Thiophene sulfoximines, compositions thereof, and methods of treating complement-mediated diseases and conditions” (Janssen Pharmaceutica NV, priority 2005, dated 2011).

Columns and labels:
activated human C1s = target: T1, activated human C1s (Homo sapiens, UniProt P09871); assay: In vitro inhibition of C1s (Ki determination, Z-Gly-Arg-S-Bzl hydrolysis, DTNB readout); format: biochemical; details: substrate Z-Gly-Arg-S-Bzl 45 μM, 37° C., pH 7.5
T1 construct: purchased Calbiochem (La Jolla, Calif.)
T1 sequence (P09871 438-688 limits assumed): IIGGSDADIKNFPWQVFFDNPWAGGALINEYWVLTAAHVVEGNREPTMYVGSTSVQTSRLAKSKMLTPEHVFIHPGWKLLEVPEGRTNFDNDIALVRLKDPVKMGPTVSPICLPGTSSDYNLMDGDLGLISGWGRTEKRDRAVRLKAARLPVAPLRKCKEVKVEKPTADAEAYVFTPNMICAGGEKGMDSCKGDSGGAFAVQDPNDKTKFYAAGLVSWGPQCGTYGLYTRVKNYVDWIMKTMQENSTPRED
T1 sequence (P09871 16-437 limits assumed): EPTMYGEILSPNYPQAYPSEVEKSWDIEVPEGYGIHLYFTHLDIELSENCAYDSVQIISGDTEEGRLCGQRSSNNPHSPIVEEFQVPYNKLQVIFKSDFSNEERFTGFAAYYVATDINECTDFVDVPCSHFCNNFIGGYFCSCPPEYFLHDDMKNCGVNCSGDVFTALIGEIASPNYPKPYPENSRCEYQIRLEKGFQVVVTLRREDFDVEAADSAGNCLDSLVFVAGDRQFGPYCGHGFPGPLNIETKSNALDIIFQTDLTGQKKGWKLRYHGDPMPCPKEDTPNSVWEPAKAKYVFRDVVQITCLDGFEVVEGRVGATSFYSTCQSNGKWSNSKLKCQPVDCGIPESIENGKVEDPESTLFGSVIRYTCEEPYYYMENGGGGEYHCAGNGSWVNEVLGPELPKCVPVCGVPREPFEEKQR
Text: Reagents: All buffer salts were obtained from Sigma Chemical Company (St. Louis, Mo.), and were of the highest purity available. DTNB was purchased from Pierce (Rockford, Ill.). Z-Gly-Arg-S-Bzl was purchased from Enzyme Systems Products (Livermore, Calif.). Activated human C1s was purchased from Calbiochem (La Jolla, Calif.).
Ki Determinations All assays were based on the ability of the test compound to inhibit the C1s-catalyzed hydrolysis of the substrate Z-Gly-Arg-S-Bzl, which was observed via a secondary reaction with 5,5′-dithio-bis(2-nitrobenzoic acid) (DTNB). […]
(§1) In a typical Ki determination, into each well of a 96-well plate was pipetted 280 μL of substrate solution, 10 μL of test compound solution, and the plate allowed to thermally equilibrate at 37° C. for 15 minutes. Reactions were initiated by the addition of a 10 μL aliquot of the enzyme, and the absorbance increase at 405 nm was continuously recorded for 15 minutes in a Molecular Devices plate reader. […] The ratio of the velocity (rate of change in absorbance as a function of time) for a sample containing no test compound was divided by the velocity of a sample containing test compound, and was plotted as a function of test compound concentration. The data were fit to a linear regression, and the value of the slope of the line calculated. The inverse of the slope was the experimentally determined Ki value.

human MASP-2 = target: T2, human MASP-2 (Homo sapiens, UniProt O00187); assay: In vitro inhibition of MASP-2 (Ki determination, Z-Gly-Arg-S-Bzl hydrolysis, DTNB readout); format: biochemical; details: substrate Z-Gly-Arg-S-Bzl 45 μM, 37° C., pH 7.5; Ki app corrected for true Ki
T2 construct: His-tag; made in house; host or cells: Baculovirus expression system in insect cells
Text: Reagents: All buffer salts were obtained from Sigma Chemical Company (St. Louis, Mo.), and were of the highest purity available. DTNB was purchased from Pierce (Rockford, Ill.). Z-Gly-Arg-S-Bzl was purchased from Enzyme Systems Products (Livermore, Calif.). Autoactivated 2-chain human MASP-2 (His-tag, Cys300-Phe686) was produced in-house from a Baculovirus expression system in insect cells.
Ki Determinations All assays were based on the ability of the test compound to inhibit the MASP-2-catalyzed hydrolysis of the substrate Z-Gly-Arg-S-Bzl, which was observed via a secondary reaction with 5,5′-dithio-bis(2-nitrobenzoic acid) (DTNB). […]
as §1, with “of substrate solution followed by 10 μL” for “of substrate solution, 10 μL”, “the plate was allowed to” for “the plate allowed to”, “C. for 10 minutes. Reactions” for “C. for 15 minutes. Reactions”, “line calculated. […]” for “line calculated. The inverse of the slope was the experimentally determined Ki value.”

T2 sequence (O00187 300-686): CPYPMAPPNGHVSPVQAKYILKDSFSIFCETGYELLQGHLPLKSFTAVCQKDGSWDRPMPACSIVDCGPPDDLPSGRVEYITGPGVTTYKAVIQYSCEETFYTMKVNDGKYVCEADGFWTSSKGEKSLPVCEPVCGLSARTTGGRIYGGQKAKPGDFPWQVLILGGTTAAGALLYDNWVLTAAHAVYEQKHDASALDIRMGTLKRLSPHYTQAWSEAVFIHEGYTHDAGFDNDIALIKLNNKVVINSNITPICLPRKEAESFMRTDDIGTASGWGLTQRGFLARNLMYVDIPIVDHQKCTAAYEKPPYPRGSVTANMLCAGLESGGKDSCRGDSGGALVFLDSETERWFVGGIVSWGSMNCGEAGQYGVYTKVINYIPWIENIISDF
T2 sequence (O00187 300-444): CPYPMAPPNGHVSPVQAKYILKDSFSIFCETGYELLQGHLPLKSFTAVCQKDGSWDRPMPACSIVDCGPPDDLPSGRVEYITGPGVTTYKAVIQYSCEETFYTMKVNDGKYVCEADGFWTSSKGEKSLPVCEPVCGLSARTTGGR

| Ki (activated human C1s) [nM] | Ki (human MASP-2) [nM] | Compound |
| --- | --- | --- |
| 11 | 440 | CSc1sc(C(=N)N)cc1S(=O)(=NS(=O)(=O)c1cccc(NC(N)=O)c1)c1cccc(-c2c(C)cc(NC(=N)N)cc2N)c1 (stereo not drawn) [Example 18, 4-[S-[3-(2-Amino-4-guanidino-6-methyl-phenyl)phenyl]-N-(3-ureidobenzene-sulfonyl)sulfoxamino]-5-methylsulfanyl-thiophene-2-carboxamidine bistrifluoroacetate] |
| 10 | – | CSc1sc(C(=N)N)cc1S(=O)(=NS(=O)(=O)c1cccc([N+](=O)[O-])c1)c1cccc(-c2ccc(NC(=N)N)cc2C)c1 (stereo not drawn) [Example 46, 4-[S-[3-(4-guanidino-6-methyl-phenyl)phenyl]-N-(3-nitrobenzene-sulfonyl)sulfoximino]-5-methylsulfanyl-thiophene-2-carboxamidine bistrifluoroacetate] |
